What follows are compounds tested against Human factor D (Homo sapiens (Human), UniProt P00746) (assay: Human Factor D Assay). Conditions: not given.
Sequence of Human factor D (P00746 26-253): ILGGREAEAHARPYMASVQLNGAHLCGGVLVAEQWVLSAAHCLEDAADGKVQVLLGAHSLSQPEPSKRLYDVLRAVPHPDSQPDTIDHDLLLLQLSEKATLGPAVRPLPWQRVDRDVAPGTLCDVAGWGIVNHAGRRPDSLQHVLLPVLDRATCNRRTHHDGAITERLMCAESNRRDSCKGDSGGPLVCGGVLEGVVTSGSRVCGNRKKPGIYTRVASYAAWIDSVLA
Format: biochemical
Outline: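 Serum-purified factor D (80 nM final) preincubated 5 min at room temperature with compound in 50 mM Tris, 1M NaCl, pH 7.5. Z-L-Lys-SBzl and DTNB added at 100 μM each; OD405 followed kinetically over 30 min. IC50 by non-linear regression of % inhibition.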
Compound CC(=O)c1cn(CC(=O)N2C[C@H](F)C[C@H]2C(=O)NC2CCCN(c3cnn(C)c3)C2)c2ccc(-c3ccnnc3)cc12 (stereo partly drawn) [Compound 140, (2S,4R)-1-(2-(3-acetyl-5-(pyridazin-4-yl)-1H-indol-1-yl)acetyl)-4-fluoro-N-(1-(1-methyl-1H-pyrazol-4-yl)piperidin-3-yl)pyrrolidine-2-carboxamide] has an IC50 of 1000 to 10000 nM.
Compound CCN1Cc2ccc(NC(=O)[C@@H]3C[C@@H](F)CN3C(=O)Cn3cc(C(C)=O)c4cc(-c5ccnnc5)ccc43)cc2C1=O [Compound 49, (2S,4R)-1-(2-(3-acetyl-5-(pyridazin-4-yl)-1H-indol-1-yl)acetyl)-N-(2-ethyl-3-oxoisoindolin-5-yl)-4-fluoropyrrolidine-2-carboxamide] has an IC50 of 1000 to 10000 nM.

Same assay, conditions: human factor D 80 nM, substrate Z-L-Lys-SBzl, DTNB
Compound NC(=O)c1nn(CC(=O)N2[C@@H]3C[C@@H]3C[C@H]2C(=O)Nc2cccc(-c3ccccc3Cl)c2F)c2ccc(-c3ccc(F)nc3)cc12 [Compound 13, 1-(2-((lR,3S,5R)-3-(2′-chloro-2-fluorobiphenyl-3-ylcarbamoyl)-2-azabicyclo[3.1.0]hexan-2-yl)-2-oxoethyl)-5-(6-fluoropyridin-3-yl)-1H-indazole-3-carboxamide] has an IC50 of under 1000 nM.
Work on CC(=O)c1cn(CC(=O)N2[C@@H]3C[C@@H]3C[C@H]2C(=O)Nc2cccc(Br)n2)c2ccc(-c3cncnc3)cc12 [Compound 17, (1R,3S,5R)-2-(2-(3-acetyl-5-(pyrimidin-5-yl)-1H-indol-1-yl)acetyl)-N-(6-bromopyridin-2-yl)-2-azabicyclo[3.1.0] hexane-3-carboxamide] yielded an IC50 of under 1000 nM.
With CNC(=O)[C@@H]1C[C@@H](F)CN1C(=O)Cn1nc(C(N)=O)c2cc(-c3ccnnc3)ccc21 [Compound 79, 1-(2-((2S,4R)-4-fluoro-2-(methylcarbamoyl)pyrrolidin-1-yl)-2-oxoethyl)-5-(pyridazin-4-yl)-1H-indazole-3-carboxamide] the IC50 was over 10000 nM.
CC(=O)c1cn(CC(=O)N2C[C@@H](F)C[C@@H]2C(=O)NC2CCCN(c3ccccc3Cl)C2=O)c2ccc(-c3ccnnc3)cc12 (stereo partly drawn) [Compound 161, (2R,4S)-1-(2-(3-acetyl-5-(pyridazin-4-yl)-1H-indol-1-yl)acetyl)-N-(1-(2-chlorophenyl)-2-oxopiperidin-3-yl)-4-fluoropyrrolidine-2-carboxamide] showed an IC50 of under 1000 nM.
CC(=O)c1cn(CC(=O)N2C[C@H](F)C[C@H]2C(=O)Nc2nc(-c3c(C)nc4sccn34)cs2)c2ccc(-c3ccnnc3)cc12 [Compound 57, (2S,4R)-1-(2-(3-acetyl-5-(pyridazin-4-yl)-1H-indol-1-yl)acetyl)-4-fluoro-N-(4-(6-methylimidazo[2,1-b]thiazol-5-yl)thiazol-2-yl)pyrrolidine-2-carboxamide] was tested, and the IC50 was over 10000 nM.
CC(=O)c1cn(CC(=O)N2C[C@H](F)C[C@H]2C(=O)Nc2cccc(-c3ccccc3Cl)c2F)c2ccc(-c3ccc(C)nc3)cc12 [Compound 151, (2S,4R)-1-(2-(3-acetyl-5-(6-methylpyridin-3-yl)-1H-indol-1-yl)acetyl)-N-(2′-chloro-2-fluorobiphenyl-3-yl)-4-fluoropyrrolidine-2-carboxamide] gave an IC50 of under 1000 nM.
Work on Cn1cc(N2CCCC(NC(=O)[C@@H]3C[C@@H](F)CN3C(=O)Cn3nc(C(N)=O)c4cc(-c5ccnnc5)ccc43)C2)cn1 (stereo partly drawn) [Compound 141, 1-(2-((2S,4R)-4-fluoro-2-(1-(1-methyl-1H-pyrazol-4-yl)piperidin-3-ylcarbamoyl)pyrrolidin-1-yl)-2-oxoethyl)-5-(pyridazin-4-yl)-1H-indazole-3-carboxamide] yielded an IC50 of over 10000 nM.
Compound Cn1cnnc1-c1ccccc1NC(=O)[C@@H]1C[C@@H](F)CN1C(=O)Cn1nc(C(N)=O)c2cc(-c3ccnnc3)ccc21 [Compound 98, 1-(2-((2S,4R)-4-fluoro-2-(2-(4-methyl-4H-1,2,4-triazol-3-yl)phenylcarbamoyl)pyrrolidin-1-yl)-2-oxoethyl)-5-(pyridazin-4-yl)-1H-indazole-3-carboxamide] has an IC50 of over 10000 nM.
For CC(=O)c1cn(CC(=O)N2C[C@H](F)C[C@H]2C(=O)Nc2nc(-c3ccccc3Cl)ns2)c2ccc(-c3ccnnc3)cc12 [Compound 99, (2S,4R)-1-(2-(3-acetyl-5-(pyridazin-4-yl)-1H-indol-1-yl)acetyl)-N-(3-(2-chlorophenyl)-1,2,4-thiadiazol-5-yl)-4-fluoropyrrolidine-2-carboxamide], the IC50 was under 1000 nM.
Work on Cn1ccc(N2CCC(NC(=O)[C@@H]3C[C@@H](F)CN3C(=O)Cn3nc(C(N)=O)c4cc(-c5ccnnc5)ccc43)C2=O)n1 (stereo partly drawn) [Compound 155, 1-(2-((2S,4R)-4-fluoro-2-(1-(1-methyl-1H-pyrazol-3-yl)-2-oxopyrrolidin-3-ylcarbamoyl)pyrrolidin-1-yl)-2-oxoethyl)-5-(pyridazin-4-yl)-1H-indazole-3-carboxamide] yielded an IC50 of over 10000 nM.
For CC(=O)c1cn(CC(=O)N2C[C@H](F)C[C@H]2C(=O)Nc2noc3cc(C(F)(F)F)ccc23)c2ccc(-c3ccnnc3)cc12 [Compound 42, (2S,4R)-1-(2-(3-acetyl-5-(pyridazin-4-yl)-1H-indol-1-yl)acetyl)-4-fluoro-N-(6-(trifluoromethyl)benzo [d]isoxazol-3-yl)pyrrolidine-2-carboxamide], the IC50 was over 10000 nM.
CC(=O)c1cn(CC(=O)N2C[C@H](F)C[C@H]2C(=O)Nc2cncc(Br)n2)c2ccc(-c3ccnnc3)cc12 [Compound 127, (2S,4R)-1-(2-(3-acetyl-5-(pyridazin-4-yl)-1H-indol-1-yl)acetyl)-N-(6-bromopyrazin-2-yl)-4-fluoropyrrolidine-2-carboxamide] gave an IC50 of under 1000 nM.
In the case of CC(=O)c1cn(CC(=O)N2C[C@H](F)C[C@H]2C(=O)Nc2ccc3ccccc3c2)c2ccc(-c3ccnnc3)cc12 [Compound 110, (2S,4R)-1-(2-(3-acetyl-5-(pyridazin-4-yl)-1H-indol-1-yl)acetyl)-4-fluoro-N-(naphthalen-2-yl)pyrrolidine-2-carboxamide], the IC50 is reported as over 10000 nM.
In the case of COc1ncc(-c2ccc3c(c2)c(C(C)=O)cn3CC(=O)N2[C@@H]3C[C@@H]3C[C@H]2C(=O)Nc2cccc(-c3ccccc3Cl)c2F)cn1 [Compound 80, (1R,3S,5R)-2-(2-(3-acetyl-5-(2-methoxypyrimidin-5-yl)-1H-indol-1-yl)acetyl)-N-(2′-chloro-2-fluorobiphenyl-3-yl)-2-azabicyclo[3.1.0] hexane-3-carboxamide], the IC50 is reported as under 1000 nM.
CC(=O)c1cn(CC(=O)N2C[C@H](F)C[C@H]2C(=O)Nc2ccccc2N2CCOC2=O)c2ccc(-c3ccnnc3)cc12 [Compound 64, (2S,4R)-1-(2-(3-acetyl-5-(pyridazin-4-yl)-1H-indol-1-yl)acetyl)-4-fluoro-N-(2-(2-oxooxazolidin-3-yl)phenyl)pyrrolidine-2-carboxamide] was tested, and the IC50 was over 10000 nM.
For NC(=O)c1nn(CC(=O)N2C[C@H](F)C[C@H]2C(=O)NCc2cccc(Cl)c2)c2ccc(-c3ccnnc3)cc12 [Compound 45, 1-(2-((2S,4R)-2-(3-chlorobenzylcarbamoyl)-4-fluoropyrrolidin-1-yl)-2-oxoethyl)-5-(pyridazin-4-yl)-1H-indazole-3-carboxamide], the IC50 was under 1000 nM.
With NC(=O)c1nn(CC(=O)N2[C@@H]3C[C@@H]3C[C@H]2C(=O)Nc2cccc(OC(F)(F)F)c2F)c2ccc(-c3cncnc3)cc12 [Compound 8, 1-(2-((1R,3S,5R)-3-(2-fluoro-3-(trifluoromethoxy)phenylcarbamoyl)-2-azabicyclo[3.1.0]hexan-2-yl)-2-oxoethyl)-5-(pyrimidin-5-yl)-1H-indazole-3-carboxamide] the IC50 was under 1000 nM.

— US9796741B2 (Achillion Pharmaceuticals, Inc., priority 2014, dated 2017)
